Experimental data from article PMC3615439 (Medicinal chemistry, 2011).

Tests used:
σ1 receptors = σ1 receptors (Cavia porcellus, UniProt Q60492); experiment: σ1 receptor binding, competition against [3H]; set-up: species or system guinea pig; settings: for Hill Slope: guinea pig brain membranes, mean ± SEM; for fold lower σ1 receptor affinity than positional isomers: 2-substituted ligand versus its 3- and/or 4-substituted isomers
[1] = Lipophilicity by reverse-phase HPLC; format: physicochemical; settings: aqueous phase pH 7.5, text calls it log k′w

Sequence of σ1 receptors (Q60492 whole entry): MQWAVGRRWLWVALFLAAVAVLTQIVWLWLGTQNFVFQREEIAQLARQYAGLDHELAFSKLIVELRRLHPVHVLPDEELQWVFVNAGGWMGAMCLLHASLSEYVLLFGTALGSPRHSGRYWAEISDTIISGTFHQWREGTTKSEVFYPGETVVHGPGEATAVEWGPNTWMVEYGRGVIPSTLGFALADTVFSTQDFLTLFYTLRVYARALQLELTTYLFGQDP

SMILES: Clc1ccc(CCNCCNCCc2cccc(Br)c2)cc1Cl [Compound 8, N-[2-(3-Bromophenyl)-ethyl]-N′-[2-(3,4-dichlorophenyl)-ethyl]-ethane-1,2-diamine]
- IC50 (σ1 receptors): 9.14 ± 0.85 nM
- Ki (σ1 receptors): 6.35 ± 0.59 nM
- Hill Slope (σ1 receptors): −1.02 ± 0.15
- k′w [1]: 3.06 ± 0.07

SMILES: Fc1cccc(CCNCCNCCc2ccc(Cl)c(Cl)c2)c1 [Compound 5, N-[2-(3,4-Dichlorophenyl)-ethyl]-N′-[2-(3-fluorophenyl)-ethyl]-ethane-1,2-diamine]
- IC50 (σ1 receptors): 11.2 ± 1.29 nM
- Ki (σ1 receptors): 7.74 ± 0.89 nM
- Hill Slope (σ1 receptors): −1.13 ± 0.09
- k′w [1]: 2.54

SMILES: Clc1ccc(CCNCCNCCc2ccccc2Br)cc1Cl [Compound 7, N-[2-(2-Bromophenyl)-ethyl]-N′-[2-(3,4-dichlorophenyl)-ethyl]-ethane-1,2-diamine]
- IC50 (σ1 receptors): 26.6 ± 3.95 nM
- Ki (σ1 receptors): 18.4 ± 2.73 nM
- fold lower σ1 receptor affinity than positional isomers (σ1 receptors): 2.7 fold
- Hill Slope (σ1 receptors): −0.78 ± 0.03
- k′w [1]: 3.09 ± 0.05

SMILES: Clc1ccc(CCNCCNCCc2ccc(I)cc2)cc1Cl [Compound 11, N-[2-(3,4-Dichlorophenyl)-ethyl]-N′-[2-(4-iodophenyl)-ethyl]-ethane-1,2-diamine]
- IC50 (σ1 receptors): 22.9 ± 0.94 nM
- Ki (σ1 receptors): 15.8 ± 0.65 nM
- fold poorer Ki value than compounds 6 or 9 (σ1 receptors; 4-iodo versus 4-fluoro or 4-bromo derivative): 2 fold
- Hill Slope (σ1 receptors): −1.59 ± 0.08
- k′w [1]: 3.71 ± 0.05

SMILES: Fc1ccc(CCNCCNCCc2ccc(Cl)c(Cl)c2)cc1 [Compound 6, N-[2-(3,4-Dichlorophenyl)-ethyl]-N′-[2-(4-fluorophenyl)-ethyl]-ethane-1,2-diamine]
- IC50 (σ1 receptors): 11.3 ± 2.02 nM
- Ki (σ1 receptors): 7.83 ± 1.39 nM
- Hill Slope (σ1 receptors): −1.21 ± 0.05
- k′w [1]: 2.54 ± 0.05

SMILES: Clc1ccc(CCNCCNCCc2ccc(Br)cc2)cc1Cl [Compound 9, N-[2-(4-Bromophenyl)-ethyl]-N′-[2-(3,4-dichlorophenyl)-ethyl]-ethane-1,2-diamine]
- IC50 (σ1 receptors): 9.85 ± 3.92 nM
- Ki (σ1 receptors): 6.8 ± 2.71 nM
- Hill Slope (σ1 receptors): −1.00 ± 0.02
- k′w [1]: 3.31 ± 0.08

SMILES: Clc1ccc(CCNCCNCCc2ccccc2I)cc1Cl [Compound 10, N-[2-(3,4-Dichlorophenyl)-ethyl]-N′-[2-(2-iodophenyl)-ethyl]-ethane-1,2-diamine]
- IC50 (σ1 receptors): 62.5 ± 0.96 nM
- Ki (σ1 receptors): 43.2 ± 0.66 nM
- fold lower σ1 receptor affinity than positional isomers (σ1 receptors): 2.7 fold
- Hill Slope (σ1 receptors): −1.12 ± 0.03

SMILES: Fc1ccccc1CCNCCNCCc1ccc(Cl)c(Cl)c1 [Compound 4, N-[2-(3,4-Dichlorophenyl)-ethyl]-N′-[2-(2-fluorophenyl)-ethyl]-ethane-1,2-diamine]
- IC50 (σ1 receptors): 17.5 ± 0.31 nM
- Ki (σ1 receptors): 12.1 ± 0.22 nM
- fold lower σ1 receptor affinity than positional isomers (σ1 receptors): 1.5 fold
- Hill Slope (σ1 receptors): −1.07 ± 0.01
